Measurements taken from ChEMBL document CHEMBL5528066, “Discovery of Novel N-(Anthracen-9-ylmethyl) Benzamide Derivatives as ZNF207 Inhibitors Promising in Treating Glioma” (J Med Chem, 2024).
The source made the active and inactive calls. The rule behind the calls is not given here.

Experiments:
[1] = system: LN-229; assay: Inhibition of cell migration in human LN-229 cells assessed as reduction in wound closure ability at 5 uM measured after 24 hrs by wound healing assay relative to control; assay type: functional
[2] = system: U-251; assay: Inhibition of sphere formation in human U-251MG cells assessed as fold reduction in sphere initiating frequency at 8 uM incubated for 10 days by microscopic analysis relative to control; assay type: functional; conditions: time 10 day
[3] = system: U-251; assay: Inhibition of sphere formation in human U-251MG cells at 2 uM measured after 10 days in well containing 1 cells by microscopic analysis; assay type: functional, cell-based; conditions: time 10.0 day
[4] = system: Hs 683; assay: Inhibition of sphere formation in human Hs 683 cells at 2 uM measured after 10 days in well containing 10 cells by microscopic analysis; assay type: functional, cell-based; conditions: time 10.0 day
[5] = target: BUB3-interacting and GLEBS motif-containing protein ZNF207 (Homo sapiens, UniProt O43670); assay: Binding affinity to ZNF207 in human U-251MG cells assessed as thermal stabilization by measuring melting temperature at 30 uM incubated for 3 hrs by CETSA (reference value: 48.7 degreeC); assay type: cell-based
[6] = system: U-251; assay: Induction of apoptosis in human U-251MG cells at 1.25 uM incubated for 24 hrs by Annexin V-FITC/PI staining based flow cytometry analysis; assay type: functional, cell-based
[7] = system: LN-229; assay: Inhibition of sphere formation in human LN-229 cells at 1 uM measured after 10 days in well containing 10000 cells by microscopic analysis; assay type: functional, cell-based; conditions: time 10.0 day
[8] = system: H4; assay: Inhibition of sphere formation in human H4 cells at 2 uM measured after 10 days in well containing 10000 cells by microscopic analysis; assay type: functional, cell-based; conditions: time 10.0 day
[9] = system: LN-229; assay: Inhibition of sphere formation in human LN-229 cells assessed as fold reduction in sphere initiating frequency at 2 uM incubated for 10 days by microscopic analysis relative to control; assay type: functional; conditions: time 10 day
[10] = Drug concentration in female Sprague-Dawley rat spleen at 45 mg/kg, po measured after 8 hrs by LC-MS/MS analysis; assay type: ADME, organism-based; conditions: read-out: Ct
[11] = system: U-251; assay: Inhibition of colony formation in human U-251MG cells assessed as reduction in colony area at 2.5 uM treated on day 1 and measured after 14 days by crystal violet staining based microscopic analysis relative to control; assay type: functional; conditions: U-251, 336 h, time 14 day
[12] = system: LN-229; assay: Antitumor activity against human LN-229 cells xenografted in BALB/c nude mouse assessed as tumor growth inhibition at 15 to 45 mg/kg, po administered once a day and measured every 2 days for 49 days relative to control; assay type: functional; conditions: dose 15-45 mg/kg, time 49 day
[13] = system: LN-229; assay: Inhibition of sphere formation in human LN-229 cells at 4 uM measured after 10 days in well containing 10 cells by microscopic analysis; assay type: functional, cell-based; conditions: time 10.0 day
[14] = system: AGS; assay: Antiproliferative activity against human AGS cells assessed as inhibition of cell growth incubated for 72 hrs by CCK-8 assay; assay type: functional, cell-based
[15] = system: LN-229; assay: Inhibition of colony formation in human LN-229 cells assessed as reduction in colony area at 2.5 uM treated on day 1 and measured after 14 days by crystal violet staining based microscopic analysis relative to control; assay type: functional; conditions: LN-229, 336 h, time 14 day
[16] = system: LN-229; assay: Inhibition of sphere formation in human LN-229 cells at 4 uM measured after 10 days in well containing 10000 cells by microscopic analysis; assay type: functional, cell-based; conditions: time 10.0 day
[17] = Drug concentration in male Sprague-Dawley rat brain at 45 mg/kg, po measured after 8 hrs by LC-MS/MS analysis; assay type: ADME, organism-based; conditions: read-out: Ct
[18] = system: Hs 683; assay: Inhibition of sphere formation in human Hs 683 cells assessed as fold reduction in sphere initiating frequency at 4 uM incubated for 10 days by microscopic analysis relative to control; assay type: functional; conditions: time 10 day
[19] = system: H4; assay: Inhibition of sphere formation in human H4 cells at 1 uM measured after 10 days in well containing 10 cells by microscopic analysis; assay type: functional, cell-based; conditions: time 10.0 day
[20] = system: Hs 683; assay: Inhibition of sphere formation in human Hs 683 cells at 8 uM measured after 10 days in well containing 10 cells by microscopic analysis; assay type: functional, cell-based; conditions: time 10.0 day
[21] = system: Hs 683; assay: Inhibition of sphere formation in human Hs 683 cells incubated for 168 hrs by microscopic analysis; assay type: functional, cell-based; conditions: Hs 683, 168 h
[22] = system: H4; assay: Inhibition of sphere formation in human H4 cells assessed as fold reduction in sphere initiating frequency at 8 uM incubated for 10 days by microscopic analysis relative to control; assay type: functional; conditions: time 10 day
[23] = Drug concentration in female Sprague-Dawley rat heart at 45 mg/kg, po measured after 8 hrs by LC-MS/MS analysis; assay type: ADME, organism-based; conditions: read-out: Ct
[24] = system: U-251; assay: Inhibition of sphere formation in human U-251MG cells at 8 uM measured after 10 days in well containing 10000 cells by microscopic analysis; assay type: functional, cell-based; conditions: time 10.0 day
[25] = system: H4; assay: Inhibition of sphere formation in human H4 cells at 4 uM measured after 10 days in well containing 10 cells by microscopic analysis; assay type: functional, cell-based; conditions: time 10.0 day
[26] = system: LN-229; assay: Inhibition of sphere formation in human LN-229 cells at 8 uM measured after 10 days in well containing 10 cells by microscopic analysis; assay type: functional, cell-based; conditions: time 10.0 day
[27] = system: H4; assay: Inhibition of sphere formation in human H4 cells at 8 uM measured after 10 days in well containing 100 cells by microscopic analysis; assay type: functional, cell-based; conditions: time 10.0 day
[28] = Drug concentration in female Sprague-Dawley rat brain at 45 mg/kg, po measured after 8 hrs by LC-MS/MS analysis; assay type: ADME, organism-based; conditions: read-out: Ct
[29] = system: Hs 683; assay: Induction of apoptosis in human Hs 683 cells assessed as apoptotic cells at 2.5 uM incubated for 24 hrs by Annexin V-FITC/PI staining based flow cytometry analysis relative to control; assay type: functional
[30] = system: H4; assay: Inhibition of sphere formation in human H4 cells at 8 uM measured after 10 days in well containing 1 cells by microscopic analysis; assay type: functional, cell-based; conditions: time 10.0 day
[31] = system: Hs 683; assay: Inhibition of colony formation in human Hs 683 cells assessed as reduction in number of cell clones treated on day 1 and measured after 14 days by crystal violet staining based microscopic analysis; assay type: functional; conditions: dose 0.625-5 µM, time 14.0 day
[32] = system: U-251; assay: Inhibition of sphere formation in human U-251MG cells at 8 uM measured after 10 days in well containing 100 cells by microscopic analysis; assay type: functional, cell-based; conditions: time 10.0 day
[33] = system: LN-229; assay: Inhibition of sphere formation in human LN-229 cells assessed as fold reduction in sphere initiating frequency at 1 uM incubated for 10 days by microscopic analysis relative to control; assay type: functional; conditions: time 10 day
[34] = Drug concentration in female Sprague-Dawley rat kidney at 45 mg/kg, po measured after 8 hrs by LC-MS/MS analysis; assay type: ADME, organism-based; conditions: read-out: Ct
[35] = system: H4; assay: Inhibition of sphere formation in human H4 cells at 8 uM measured after 10 days in well containing 10000 cells by microscopic analysis; assay type: functional, cell-based; conditions: time 10.0 day
[36] = system: Hs 683; assay: Inhibition of sphere formation in human Hs 683 cells at 1 uM measured after 10 days in well containing 1 cells by microscopic analysis; assay type: functional, cell-based; conditions: time 10.0 day
[37] = system: LN-229; assay: Antiproliferative activity against human LN-229 cells assessed as inhibition of cell growth measured after 72 hrs by CCK-8 assay; assay type: functional, cell-based; conditions: LN-229, 72 h
[38] = system: U-251; assay: Inhibition of sphere formation in human U-251MG cells at 4 uM measured after 10 days in well containing 1 cells by microscopic analysis; assay type: functional, cell-based; conditions: time 10.0 day
[39] = system: MDR1; assay: Efflux ratio of apparent permeability across basolateral to apical side over apical to basolateral side in MDCKII-MDR1 cells at 1 uM incubated for 2 hrs by LC-MS/MS analysis; assay type: ADME, cell-based, Canis lupus familiaris; conditions: dog, MDCK-MDR1

BUB3-interacting and GLEBS motif-containing protein ZNF207, sequence (O43670 whole entry): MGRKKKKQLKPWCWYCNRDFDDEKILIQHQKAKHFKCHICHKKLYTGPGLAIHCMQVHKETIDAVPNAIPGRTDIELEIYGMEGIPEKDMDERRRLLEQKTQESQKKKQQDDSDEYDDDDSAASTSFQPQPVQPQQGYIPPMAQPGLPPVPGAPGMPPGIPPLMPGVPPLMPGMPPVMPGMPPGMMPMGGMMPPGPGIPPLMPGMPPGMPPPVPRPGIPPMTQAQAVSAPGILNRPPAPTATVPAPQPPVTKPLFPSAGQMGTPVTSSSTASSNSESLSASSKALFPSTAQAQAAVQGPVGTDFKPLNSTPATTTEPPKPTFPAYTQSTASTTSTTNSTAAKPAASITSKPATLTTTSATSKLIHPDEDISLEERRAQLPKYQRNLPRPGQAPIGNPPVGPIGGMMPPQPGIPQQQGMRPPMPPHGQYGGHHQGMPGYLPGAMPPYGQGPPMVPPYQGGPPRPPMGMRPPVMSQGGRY

N#CC1(C(=O)NCCC2CCN(Cc3ccccc3)CC2)CC2(Br)c3ccccc3C1c1ccccc12 (racemic)
inhibition at 5 µM [1]: 16.6% | fold change (FC) [2]: 166 | inhibition [3]: Active | inhibition [4]: Active | Tm [5]: 53.9 °C | Activity [6]: Active | inhibition [7]: inactive | inhibition [8]: inactive | fold change (FC) [9]: 22.43 | concentration at 8 h [10]: 2330 ng/g | inhibition at 2.5 µM [11]: 100% | TGI [12]: ~55% | inhibition [13]: Active | IC50 [14]: 9.42 µM | inhibition at 2.5 µM [15]: 100% | inhibition [16]: inactive | concentration at 8 h [17]: 9.2 ng/g | fold change (FC) [18]: 39.23 | inhibition [19]: Active | inhibition [20]: Active | IC50 [21]: 2.1 µM | fold change (FC) [22]: 51.75 | concentration at 8 h [23]: 783 ng/g | inhibition [24]: inactive | inhibition [25]: Active | inhibition [26]: Active | inhibition [27]: Active | concentration at 8 h [28]: 56.1 ng/g | Activity [29]: ~20% | inhibition [30]: Active | inhibition [31]: Dose-Dependent Effect | inhibition [32]: Active | fold change (FC) [33]: 4.37 | concentration at 8 h [34]: 816 ng/g | inhibition [35]: inactive | inhibition [36]: Active | IC50 [37]: 4.99 µM | inhibition [38]: Active | efflux ratio at 2 h, 1 µM [39]: 3.25
